# Data taken from PMC13308190, “Endothelial progenitor cell susceptibility to DNA damaging and DDR-modulating compounds determines endothelial differentiation accuracy” (Stem Cell Research & Therapy, 2026).
# Columns and labels:
# [1] = system: EC d6 (endothelial-like cells); test: RT-qPCR mRNA expression; assay type: cell-based, mouse
# Protocol: (§1) Total RNA was purified using the RNeasy Mini Kit (Qiagen, Hilden, Germany). Reverse transcriptase (RT) reaction was performed with the HighCapacity cDNA Reverse Transcription Kit (Applied Biosystems, Darmstadt, Germany) using 900–2000 ng of RNA. Quantitative RT-qPCR analysis was performed using following conditions: (1) 95 °C–10 min; (2) 45 amplification cycles with 95 °C–15 s, 55 °C–15 s, and 72 °C–17 s; (3) 95 °C–1 min, 55 °C–1 min, 65 °C–5 s. If not stated otherwise, analyses were performed in technical triplicates using pooled samples from two independent experiments (each performed with biological duplicates) by use of a CFX96 cycler (BioRad) and the SensiMix SYBR Kit (Bioline, London, UK). The primers used for mRNA expression analyses are listed in Supplementary Table 1. To ensure the specificity of the amplification product, melting curves were recorded at the end of the run. mRNA expression levels were normalized to β-Actin and Gapdh. Relative mRNA expression in mESC or corresponding untreated controls was set to 1.0. Only changes in gene expression of ≤ 0.5- and ≥ 2-fold were considered as biologically relevant.
# mESC = test: RT-qPCR mRNA expression; assay type: cell-based, mouse; conditions: for Cdkn1a mRNA / Cdkn2a mRNA / Glb1 mRNA / Il6 mRNA / Il8 mRNA / Tp53 mRNA: Fig 7A; for Atp7a mRNA / Atp7b mRNA / Ctr2 mRNA / Mdr1 mRNA / Mrp1 mRNA / Oct2 mRNA: Fig 2D
# Protocol: as §1, with “relevant. Fold-changes in gene expression are summarized in Supplementary Table 2.” for “relevant.”
# [2] = EC d6 + 0.1 µM 24 h + 24 h post incubation, Fig 7C
# [3] = mESC + 0.05 µM 24 h + 24 h post incubation
# [4] = mESC + 0.1 µM 24 h + 24 h post incubation
compound,measurement,setting,value
"COc1cccc2c1C(=O)c1c(O)c3c(c(O)c1C2=O)C[C@@](O)(C(=O)CO)C[C@@H]3O[C@H]1C[C@H](N)[C@H](O)[C@H](C)O1 [Dox, doxorubicin]",Cdkn1a mRNA,[1]; [2],5.67 Fold of untreated control
same,Cdkn2a mRNA,[1]; [2],2.66 Fold of untreated control
same,Glb1 mRNA,[1]; [2],1.97 Fold of untreated control
same,Il6 mRNA,[1]; [2],3.23 Fold of untreated control
same,Il8 mRNA,[1]; [2],1.15 Fold of untreated control
same,Tp53 mRNA,[1]; [2],1.09 Fold of untreated control
same,Atp7a mRNA,"[1]; EC d6 + 0.1 µM 24 h, Fig 2D",1.77 Fold of control
same,Atp7b mRNA,"[1]; EC d6 + 0.1 µM 24 h, Fig 2D",1.11 Fold of control
same,Ctr2 mRNA,"[1]; EC d6 + 0.1 µM 24 h, Fig 2D",1.27 Fold of control
same,Mdr1 mRNA,"[1]; EC d6 + 0.1 µM 24 h, Fig 2D",11.55 Fold of control
same,Mrp1 mRNA,"[1]; EC d6 + 0.1 µM 24 h, Fig 2D",1.40 Fold of control
same,Oct2 mRNA,"[1]; EC d6 + 0.1 µM 24 h, Fig 2D",1.39 Fold of control
same,Brca1 mRNA,"[1]; EC d6 + 0.1 µM 24 h, Fig 5C",0.45 Fold of mESC
same,Chk1 mRNA,"[1]; EC d6 + 0.1 µM 24 h, Fig 5C",0.43 Fold of mESC
same,Rad51 mRNA,"[1]; EC d6 + 0.1 µM 24 h, Fig 5C",0.48 Fold of mESC
same,Pgc1a mRNA,"[1]; EC d6 + 0.1 µM 24 h, Fig 6D",21.56 Fold of untreated control
same,Gpx4 mRNA,"[1]; EC d6 + 0.1 µM 24 h, Fig 6F",0.99 Fold of untreated control
same,Slc7a11 mRNA,"[1]; EC d6 + 0.1 µM 24 h, Fig 6F",1.09 Fold of untreated control
same,Cldn5 mRNA,"[1]; EC d6 + 0.1 µM 24 h, Fig 8C",2.50 Fold of EC d4 or d6
same,Ocln mRNA,"[1]; EC d6 + 0.1 µM 24 h, Fig 8C",1.79 Fold of EC d4 or d6
same,Tjp1 mRNA,"[1]; EC d6 + 0.1 µM 24 h, Fig 8C",1.21 Fold of EC d4 or d6
same,Cdkn1a mRNA,mESC; [3],2.20 Fold of untreated control
same,Cdkn2a mRNA,mESC; [3],2.02 Fold of untreated control
same,Glb1 mRNA,mESC; [3],1.22 Fold of untreated control
same,Il6 mRNA,mESC; [3],2.74 Fold of untreated control
same,Il8 mRNA,mESC; [3],1.29 Fold of untreated control
same,Tp53 mRNA,mESC; [3],0.86 Fold of untreated control
same,Atp7a mRNA,mESC; mESC + 0.05 µM 24 h,2.50 Fold of control
same,Atp7b mRNA,mESC; mESC + 0.05 µM 24 h,1.82 Fold of control
same,Ctr2 mRNA,mESC; mESC + 0.05 µM 24 h,2.95 Fold of control
same,Mdr1 mRNA,mESC; mESC + 0.05 µM 24 h,4.03 Fold of control
same,Mrp1 mRNA,mESC; mESC + 0.05 µM 24 h,2.38 Fold of control
same,Oct2 mRNA,mESC; mESC + 0.05 µM 24 h,5.33 Fold of control
same,Gpx1 mRNA,"mESC; mESC + 0.05 µM 24 h, Fig 6C",1.54 Fold of untreated control
same,Gpx4 mRNA,"mESC; mESC + 0.05 µM 24 h, Fig 6C",0.62 Fold of untreated control
same,Gstm1 mRNA,"mESC; mESC + 0.05 µM 24 h, Fig 6C",2.08 Fold of untreated control
same,Hmox1 mRNA,"mESC; mESC + 0.05 µM 24 h, Fig 6C",1.14 Fold of untreated control
same,Pgc1a mRNA,"mESC; mESC + 0.05 µM 24 h, Fig 6C",1.78 Fold of untreated control
same,Sod1 mRNA,"mESC; mESC + 0.05 µM 24 h, Fig 6C",1.30 Fold of untreated control
same,Sod2 mRNA,"mESC; mESC + 0.05 µM 24 h, Fig 6C",1.10 Fold of untreated control
same,Gpx4 mRNA,"mESC; mESC + 0.05 µM 24 h, Fig 6F",1.03 Fold of untreated control
same,Slc7a11 mRNA,"mESC; mESC + 0.05 µM 24 h, Fig 6F",0.99 Fold of untreated control
same,Cdkn1a mRNA,mESC; [4],2.09 Fold of untreated control
same,Cdkn2a mRNA,mESC; [4],2.49 Fold of untreated control
same,Glb1 mRNA,mESC; [4],1.35 Fold of untreated control
same,Il6 mRNA,mESC; [4],2.84 Fold of untreated control
same,Il8 mRNA,mESC; [4],1.07 Fold of untreated control
same,Tp53 mRNA,mESC; [4],0.87 Fold of untreated control
same,Atp7a mRNA,mESC; mESC + 0.1 µM 24 h,3.09 Fold of control
same,Atp7b mRNA,mESC; mESC + 0.1 µM 24 h,2.42 Fold of control
same,Ctr2 mRNA,mESC; mESC + 0.1 µM 24 h,4.05 Fold of control
same,Mdr1 mRNA,mESC; mESC + 0.1 µM 24 h,6.26 Fold of control
same,Mrp1 mRNA,mESC; mESC + 0.1 µM 24 h,2.51 Fold of control
same,Oct2 mRNA,mESC; mESC + 0.1 µM 24 h,0.75 Fold of control
same,Brca1 mRNA,"mESC; mESC + 0.1 µM 24 h, Fig 5C",1.93 Fold of mESC
same,Chk1 mRNA,"mESC; mESC + 0.1 µM 24 h, Fig 5C",0.68 Fold of mESC
same,Rad51 mRNA,"mESC; mESC + 0.1 µM 24 h, Fig 5C",1.36 Fold of mESC
same,Pgc1a mRNA,"mESC; mESC + 0.1 µM 24 h, Fig 6D",10.69 Fold of untreated control
same,Gpx4 mRNA,"mESC; mESC + 0.1 µM 24 h, Fig 6F",1.05 Fold of untreated control
same,Slc7a11 mRNA,"mESC; mESC + 0.1 µM 24 h, Fig 6F",1.20 Fold of untreated control
